Results from patent US20240109853A1 (Shanghai Yao Yuan Biotechnology Co., Ltd., priority 2020, published 2024).
Like-named read-outs stand apart in the source and are kept apart here.

Key:
[1] = tested on: ALPK1-dependent NFκB reporter gene activation in HEK293 cells stably expressing an NF-kB reporter (G9 cells); experiment: NFκB gene reporter alkaline phosphatase assay; format: cell-based; details: read-out: NFkB assay IC50
Method in brief: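 Inhibition of ALPK1-driven NF-kB activation is measured as reduced reporter phosphatase activity after agonist challenge with D-glycero-D-manno-6-fluoro-heptose-1β-S-ADP. Cells receive serially diluted compound 30 min beforehand. Values are IC50s from non-linear regression.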

[2] = biological target: ALPK1 (Homo sapiens (Human), UniProt Q96QP1); experiment: ALPK1 in vitro kinase assay (HTRF of TIFA phosphorylation); format: biochemical
ALPK1, sequence (Q96QP1 whole entry): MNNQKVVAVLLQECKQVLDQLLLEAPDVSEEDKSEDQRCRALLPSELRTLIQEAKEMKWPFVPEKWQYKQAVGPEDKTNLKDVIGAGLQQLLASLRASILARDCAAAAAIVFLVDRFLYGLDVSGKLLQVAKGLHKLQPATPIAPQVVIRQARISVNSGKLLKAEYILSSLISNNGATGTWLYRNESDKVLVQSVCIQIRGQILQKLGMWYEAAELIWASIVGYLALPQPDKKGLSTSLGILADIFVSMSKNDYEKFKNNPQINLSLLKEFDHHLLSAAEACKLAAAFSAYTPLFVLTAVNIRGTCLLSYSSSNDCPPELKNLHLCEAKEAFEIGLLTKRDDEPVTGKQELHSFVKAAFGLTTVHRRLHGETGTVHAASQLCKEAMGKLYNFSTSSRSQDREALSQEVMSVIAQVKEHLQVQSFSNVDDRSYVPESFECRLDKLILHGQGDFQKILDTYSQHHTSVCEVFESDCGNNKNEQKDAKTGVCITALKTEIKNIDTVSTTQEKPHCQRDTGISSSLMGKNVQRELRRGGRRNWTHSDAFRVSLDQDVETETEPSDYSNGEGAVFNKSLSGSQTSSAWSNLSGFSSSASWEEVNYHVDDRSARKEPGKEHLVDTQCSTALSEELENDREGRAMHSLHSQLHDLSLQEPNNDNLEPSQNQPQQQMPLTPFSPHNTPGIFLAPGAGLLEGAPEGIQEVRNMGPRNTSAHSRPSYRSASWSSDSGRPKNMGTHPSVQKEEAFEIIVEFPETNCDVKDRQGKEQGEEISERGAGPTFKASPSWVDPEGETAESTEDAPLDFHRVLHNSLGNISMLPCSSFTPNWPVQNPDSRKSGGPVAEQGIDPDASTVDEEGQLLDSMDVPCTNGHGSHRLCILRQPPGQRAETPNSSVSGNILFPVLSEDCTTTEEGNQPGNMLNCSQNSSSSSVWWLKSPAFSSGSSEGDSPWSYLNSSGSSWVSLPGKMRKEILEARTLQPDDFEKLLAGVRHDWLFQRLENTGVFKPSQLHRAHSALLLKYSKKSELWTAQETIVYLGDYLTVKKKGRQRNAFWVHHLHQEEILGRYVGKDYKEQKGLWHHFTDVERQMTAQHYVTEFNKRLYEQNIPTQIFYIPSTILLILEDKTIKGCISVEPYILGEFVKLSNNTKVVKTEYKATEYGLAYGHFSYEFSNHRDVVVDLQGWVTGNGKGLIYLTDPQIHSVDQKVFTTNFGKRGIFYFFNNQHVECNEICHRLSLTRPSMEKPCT

SMILES | IC50 ([1]; Homo sapiens, HEK293) | IC50 [2] | IC50 [1]
C#CC(C)(c1ccc(Br)cc1)c1csc(NC(=O)NCC2(O)CCNCC2)n1 (centres unmarked) [Example A238, 1-(4-(2-(4-bromophenyl)but-3-yn-2-yl)thiazol-2-yl)-3-((4-hydroxypiperidin-4-yl)methyl)urea] | 27000 nM | 19 nM | –
C#C[C@@](C)(c1ccc(Cl)cc1)c1csc(NC(=O)NC(CO)CO)n1 (stereo in doubt) [Example A298, 1-(4-(2-(4-chlorophenyl)but-3-yn-2-yl)thiazol-2-yl)-3-(1,3-dihydroxypropan-2-yl)urea] | 1150 nM | 246 nM | –
C#C[C@@](C)(c1ccc(Br)cc1)c1csc(NC(=O)NCCO)n1 [Example A160, (S)-1-(4-(2-(4-bromophenyl)but-3-yn-2-yl)thiazol-2-yl)-3-(2-hydroxyethyl)urea] | 170 nM | 10 nM | –
Cc1nc(N2CCNCC2)ncc1CNC(=O)Nc1nc(C(C)(C)c2ccc(Br)cc2)cs1 [Example A089, 1-(4-(2-(4-bromophenyl)propan-2-yl)thiazol-2-yl)-3-((4-methyl-2-(piperazin-1-yl)pyrimidin-5-yl)methyl)urea] | 1190 nM | 26 nM | –
COc1ccc(C(C)(C)c2csc(NC(=O)NCCc3ccncc3)n2)cc1 [Example A124, 1-(4-(2-(4-methoxyphenyl)propan-2-yl)thiazol-2-yl)-3-(2-(pyridin-4-yl)ethyl)urea] | 1050 nM | 165 nM | –
COc1ccc(C(C)(C)c2csc(NC(=O)NCc3ccc(NCCO)nc3)n2)cc1 [Example A022, 1-((6-((2-hydroxyethyl)amino)pyri-din-3-yl)methyl)-3-(4-(2-(4-methoxyphenyl)propan-2-yl)thiazol-2-yl)urea] | – | 232 nM | 960 nM
COc1ccc(C(C)(C)c2csc(NC(=O)NCCOCCN3CCC(N)C3)n2)cc1 (centres unmarked) [Example A072, 1-(2-(2-(3-aminopyrrolidin-1-yl)ethoxy)ethyl)-3-(4-(2-(4-methoxyphenyl)propan-2-yl)thiazol-2-yl)urea] | 1450 nM | 143 nM | –
CCOc1ccc(C(C)(C)c2csc(NC(=O)NCc3cnc(N4CCNCC4)nc3)n2)cc1 [Example A087, 1-(4-(2-(4-ethoxyphenyl)propan-2-yl)thiazol-2-yl)-3-((2-(piperazin-1-yl)pyrimidin-5-yl)methyl)urea] | 1740 nM | 89 nM | –
C#C[C@](C)(c1ccc(OC)cc1)c1csc(NC(N)=O)n1 [Example A172, (R)-1-(4-(2-(4-methoxyphenyl)but-3-yn-2-yl)thiazol-2-yl)urea] | 1280 nM | 36 nM | –
CC(C)(c1ccc(Cl)cc1)c1csc(NC(=O)NCc2cnc(N3CCNCC3)nc2)n1 [Example A084, 1-(4-(2-(4-chlorophenyl)propan-2-yl)thiazol-2-yl)-3-((2-(piperazin-1-yl)pyrimidin-5-yl)methyl)urea] | 340 nM | 22 nM | –
C#C[C@@](C)(c1ccc(Cl)cc1)c1csc(NC(=O)N2CC(CO)C2)n1 [Example A258, (S)-N-(4-(2-(4-chlorophenyl)but-3-yn-2-yl)thiazol-2-yl)-3-(hydroxymethyl)azetidine-1-carboxamide] | 1330 nM | 357 nM | –
COCCCNC(=O)Nc1nc(C(C)(C)c2ccc(OC)cc2)cs1 [Example A111, 1-(4-(2-(4-methoxyphenyl)propan-2-yl)thiazol-2-yl)-3-(3-methoxypropyl)urea] | 1240 nM | 127 nM | –
COc1ccc(C(C)(C)c2csc(NC(=O)NCc3ccc(N4CCC(N(C)C)C4)nc3)n2)cc1 (centres unmarked) [Example A011, 1-((6-(3-(dimethylamino)pyrrolidin-1-yl)pyridin-3-yl)methyl)-3-(4-(2-(4-methoxyphenyl)propan-2-yl)thiazol-2-yl)urea] | 1370 nM | 49 nM | –
COc1ccc(C(C)(C)c2csc(NC(=O)NCCCCO)n2)cc1 [Example A128, 1-(4-hydroxybutyl)-3-(4-(2-(4-methoxyphenyl)propan-2-yl)thiazol-2-yl)urea] | 530 nM | 146 nM | –
CC(C)(c1ccc(Br)cc1)c1csc(NC(=O)NCc2ccc(CN3CCNCC3)c(F)c2)n1 [Example A214, 1-(4-(2-(4-bromophenyl)propan-2-yl)thiazol-2-yl)-3-(3-fluoro-4-(piperazin-1-ylmethyl)benzyl)urea] | 1560 nM | 40 nM | –
CC(C)(c1ccc(Br)cc1)c1csc(NC(=O)NCc2ccc(N3CCNC(=O)C3)cc2)n1 [Example A195, 1-(4-(2-(4-bromophenyl)propan-2-yl)thiazol-2-yl)-3-(4-(3-oxopiperazin-1-yl)benzyl)urea] | 9940 nM | 132 nM | –
C#CC(C)(c1ccc(Cl)cc1)c1csc(NC(=O)NO)n1 (centres unmarked) [Example A271, 1-(4-(2-(4-chlorophenyl)but-3-yn-2-yl)thiazol-2-yl)-3-hydroxyurea] | 730 nM | 493 nM | –

SMILES | IC50 ([1]; Homo sapiens, HEK293) | IC50 [2] | IC50 [1]
CC(C)(c1ccc(Br)cc1)c1csc(NC(=O)NCc2cnc(N3CCNCC3)cn2)n1 [Example A093, 1-(4-(2-(4-bromophenyl)propan-2-yl)thiazol-2-yl)-3-((5-(piperazin-1-yl)pyrazin-2-yl)methyl)urea] | 320 nM | 9 nM | –
COc1ccc(C(C)(C)c2csc(NC(=O)NCc3ccc(N4CC5CC4CN5)c(C(N)=O)c3)n2)cc1 (centres unmarked) [Example A064, 2-(2,5-diazabicyclo[2.2.1]heptan-2-yl)-5-((3-(4-(2-(4-methoxyphenyl)propan-2-yl)thiazol-2-yl)ureido)methyl)benza-mide] | 19700 nM | 41 nM | –
CC(C)(c1ccc(Br)c(F)c1)c1csc(NC(=O)NCc2cnc(N3CCNCC3)nc2)n1 [Example A196, 1-(4-(2-(4-bromo-3-fluorophenyl)propan-2-yl)thiazol-2-yl)-3-((2-(piperazin-1-yl)pyrimidin-5-yl)methyl)urea] | 3340 nM | 76 nM | –
CC(C)(c1ccc(Br)cc1)c1csc(NC(=O)NCc2ccc(N3CCNCC3)cc2Cl)n1 [Example A048, 1-(4-(2-(4-bromophenyl)propan-2-yl)thiazol-2-yl)-3-(2-chloro-4-(piperazin-1-yl)benzyl)urea] | 1530 nM | 138 nM | –
CC(C)Oc1cc(CNC(=O)Nc2nc(C(C)(C)c3ccc(Br)cc3)cs2)ccc1N1CCNCC1 [Example A221, 1-(4-(2-(4-bromophenyl)propan-2-yl)thiazol-2-yl)-3-(3-isopropoxy-4-(piperazin-1-yl)benzyl)urea] | 2380 nM | 144 nM | –
COc1ccc(C(C)(C)c2csc(NC(=O)NC3CCC(O)CC3)n2)cc1 (centres unmarked) [Example A122, 1-(4-hydroxycyclohexyl)-3-(4-(2-(4-methoxyphenyl)propan-2-yl)thiazol-2-yl)urea] | 1700 nM | 219 nM | –
COc1ccc(C(C)(C)c2csc(NC(=O)NCc3cnc(N4CCC(O)C4)nc3)n2)cc1 (centres unmarked) [Example A083, 1-((2-(3-hydroxypyrrolidin-1-yl)pyrimidin-5-yl)methyl)-3-(4-(2-(4-methoxyphenyl)propan-2-yl)thiazol-2-yl)urea] | 680 nM | 111 nM | –
CCCN1CCC(NC(=O)c2ccc(CNC(=O)Nc3nc(C(C)(C)c4ccc(OC)cc4)cs3)cn2)CC1 [Example A115, 5-((3-(4-(2-(4-methoxyphenyl)propan-2-yl)thiazol-2-yl)ureido)methyl)-N-(1-propylpiperidin-4-yl)picolinamide] | 830 nM | 19 nM | –
CC(C)(c1ccc(Br)cc1)c1csc(NC(=O)NCc2cnc(N3CCNCC3)c(F)c2)n1 [Example A038, 1-(4-(2-(4-bromophenyl)propan-2-yl)thiazol-2-yl)-3-((5-fluoro-6-(piperazin-1-yl)pyridin-3-yl)methyl)urea] | 1660 nM | 30 nM | –
C#CC(C)(c1ccc(Br)cc1)c1csc(NC(=O)NCC(O)CO)n1 (centres unmarked) [Example A156, 1-(4-(2-(4-bromophenyl)but-3-yn-2-yl)thiazol-2-yl)-3-(2,3-dihydroxypropyl)urea] | 380 nM | 22 nM | –
CNC(=O)c1cc(CNC(=O)Nc2nc(C(C)(C)c3ccc(OC)cc3)cs2)ccc1N1CCNCC1 [Example A065, 5-((3-(4-(2-(4-methoxyphenyl)propan-2-yl)thiazol-2-yl)ureido)methyl)-N-methyl-2-(piperazin-1-yl)benzamide] | 4440 nM | 30 nM | –
CC(C)(c1ccc(Br)cc1)c1csc(NC(=O)NCCCS(C)(=O)=O)n1 [Example A130, 1-(4-(2-(4-bromophenyl)propan-2-yl)thiazol-2-yl)-3-(3-(methylsulfonyl)propyl) urea] | 1100 nM | 293 nM | –
COc1ccc(C(C)(C)c2csc(NC(=O)NCc3cnc(NCCO)c(F)c3)n2)cc1 [Example A105, 1-((5-fluoro-6-((2-hydroxyethyl)amino)pyri-din-3-yl)methyl)-3-(4-(2-(4-methoxyphenyl)propan-2-yl)thiazol-2-yl)urea] | 1020 nM | 144 nM | –
CC(C)(c1ccc(C2CC2)cc1)c1csc(NC(=O)NCc2ccc(N3CCNCC3)cc2)n1 [Example A025, 1-(4-(2-(4-cyclopropylphenyl)propan-2-yl)thiazol-2-yl)-3-(4-(piperazin-1-yl)benzyl)urea] | 8580 nM | 334 nM | –
CC(C)(c1ccc(Cl)c(F)c1)c1csc(NC(=O)NCc2cnc(N3CCNCC3)nc2)n1 [Example A179, 1-(4-(2-(4-chloro-3-fluorophenyl)propan-2-yl)thiazol-2-yl)-3-((2-(piperazin-1-yl)pyrimidin-5-yl)methyl)urea] | 1360 nM | 95 nM | –
COc1ccc(C(C)(C)c2csc(NC(=O)NCCCN3CCOCC3)n2)cc1 [Example A134, 1-(4-(2-(4-methoxyphenyl)propan-2-yl)thiazol-2-yl)-3-(3-morpholinopropyl)urea] | 5110 nM | 152 nM | –
C#C[C@](C)(c1ccc(Br)cc1)c1csc(NC(=O)NCCO)n1 [Example A161, (R)-1-(4-(2-(4-bromophenyl)but-3-yn-2-yl)thiazol-2-yl)-3-(2-hydroxyethyl)urea] | 550 nM | 68 nM | –
